Starred links: 1 amine or outer side, 2 acyl side, 3 side chain; linkers in the order of their positions; H or OH if unused. Positions of bridges follow the written chain, without caps; N, C: chain ends. Non-standard residues stand in square brackets, D forms with d. Residues, ends and D or L forms follow the SMILES beside them. Groups on a side chain read outwards from the residue. *: point of attachment. Trp(1-CH2CO2Me) = COC(=O)Cn1cc(C[C@H](N)C(=O)O)c2ccccc21; Trp(1-CH2COOH) = N[C@@H](Cc1cn(CC(=O)O)c2ccccc12)C(=O)O; X67 = S=C(Nc1c(Cl)c(Cl)cc(Cl)c1Cl)*; Hyp = O=C(O)[C@@H]1C[C@@H](O)CN1; X94 = S=C(Nc1ccc(N2CCOCC2)nc1)*; X36 = c1ccc(Oc2cccc(N*)c2)cc1; X55 = COc1cc(NC(=S)*)cc(OC)c1; X60 = Cc1cc2cc(NC(=S)*)ccc2o1; NMeNle = CCCC[C@H](NC)C(=O)O; X22 = c1ccc(N(c2ccccc2)*)cc1; X2 = c1ccc(-c2ccccc2N*)cc1; X52 = c1ccc2c(N*)c[nH]c2c1; X82 = S=C(Nc1cccc2nsnc12)*; 4Abz = Nc1ccc(C(=O)O)cc1; NMeA = CN[C@@H](C)C(=O)O; X58 = COc1cc(N*)cc(OC)c1; βNA = c1ccc2cc(N*)ccc2c1; Dab = NCC[C@H](N)C(=O)O; Dap = NC[C@H](N)C(=O)O; CO = O=C([*:1])[*:2]
The molecules below were run against T1, PD-1/PD-L1 (Homo sapiens, UniProt Q9NZQ7) (assay: PD-1/PD-L1 Homogenous Time-Resolved Fluorescence (HTRF) binding assay). Settings: not given.
T1 construct: TVMV protease site linker (C); made in house; host or cells: HEK293T cells
T1 sequence (Q9NZQ7 18-239): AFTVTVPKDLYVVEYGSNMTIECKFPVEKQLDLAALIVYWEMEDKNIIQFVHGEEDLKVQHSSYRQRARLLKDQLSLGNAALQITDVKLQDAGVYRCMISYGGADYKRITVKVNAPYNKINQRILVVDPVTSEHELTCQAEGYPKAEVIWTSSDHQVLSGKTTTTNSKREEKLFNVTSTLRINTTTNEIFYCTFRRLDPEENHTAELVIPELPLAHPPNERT
Excerpt: The ability of the compounds of formula (I) to bind to PD-L1 was investigated using a PD-1/PD-L1 Homogenous Time-Resolved Fluorescence (HTRF) binding assay.
The interaction of PD-1 and PD-L1 can be assessed using soluble, purified preparations of the extracellular domains of the two proteins. The PD-1 and PD-L1 protein extracellular domains were expressed as fusion proteins with detection tags, for PD-1, the tag was the Fc portion of Immunoglobulin (PD-1-Ig) and for PD-L1 it was the 6 histidine motif (PD-L1-His). All binding studies were performed in an HTRF assay buffer consisting of dPBS supplemented with 0.1% […] bovine serum albumin and 0.05% (v/v) Tween-20. For the h/PD-L1-His binding assay, inhibitors were pre-incubated with PD-L1-His (10 nM final) for 15 m in 4 μl of assay buffer, followed by addition of PD-1-Ig (20 nM final) in 1 μl of assay buffer and further incubation for 15 m. HTRF detection was achieved using europium crypate-labeled anti-Ig (1 nM final) and allophycocyanin (APC) labeled anti-His (20 nM final). Antibodies were diluted in HTRF detection buffer and 5 μl was dispensed on top of the binding reaction. […] Additional binding assays were established between the human proteins PD-1-Ig/PD-L2-His (20 & 5 nM, respectively) and CD80-His/PD-L1-Ig (100 & 10 nM, respectively). […]

| SMILES | IC50 |
| --- | --- |
| CCCC[C@H]1C(=O)N(C)[C@@H](CCCC)C(=O)N[C@@H](CC(C)C)C(=O)N[C@H](C(=O)NCC(N)=O)CSCC(=O)N[C@@H](Cc2ccc(O)cc2)C(=O)N(C)[C@@H](C)C(=O)N[C@@H](CC(N)=O)C(=O)N2CCC[C@H]2C(=O)N[C@@H](CNC(=O)Nc2ccc3ccccc3c2)C(=O)N[C@@H](CC(C)C)C(=O)N2C[C@H](O)C[C@H]2C(=O)N[C@@H](Cc2c[nH]c3ccccc23)C(=O)N[C@@H](CCNC(=O)Nc2ccc3ccccc3c2)C(=O)N[C@@H](Cc2cn(CC(=O)O)c3ccccc23)C(=O)N1C [Example 3001] ({CH2CO}-Y[NMeA]NP[Dap]([CO-βNA])L[Hyp]W[Dab]([CO-βNA])[Trp(1-CH2COOH)][NMeNle][NMeNle]LCG-NH2; thioether N-14) | 7.3 nM |
| CCCC[C@H]1C(=O)N(C)[C@@H](CCCC)C(=O)N[C@@H](CC(C)C)C(=O)N[C@H](C(=O)NCC(N)=O)CSCC(=O)N[C@@H](Cc2ccc(O)cc2)C(=O)N(C)[C@@H](C)C(=O)N[C@@H](CC(N)=O)C(=O)N2CCC[C@H]2C(=O)N[C@@H](CNC(=O)Nc2ccccc2-c2ccccc2)C(=O)N[C@@H](CC(C)C)C(=O)N2C[C@H](O)C[C@H]2C(=O)N[C@@H](Cc2c[nH]c3ccccc23)C(=O)N[C@@H](CCN)C(=O)N[C@@H](Cc2cn(CC(=O)O)c3ccccc23)C(=O)N1C [Example 1062] ({CH2CO}-Y[NMeA]NP[Dap]([CO-X2])L[Hyp]W[Dab][Trp(1-CH2COOH)][NMeNle][NMeNle]LCG-NH2; thioether N-14) | 3.4 nM |

Same assay, conditions: PD-L1-His 10 nM pre-incubated with inhibitor, PD-1-Ig 20 nM; read-out: HTRF IC50

| SMILES | IC50 |
| --- | --- |
| CCCC[C@H]1C(=O)N(C)[C@@H](CCCC)C(=O)N[C@@H](CC(C)C)C(=O)N[C@H](C(=O)NCC(N)=O)CSCC(=O)N[C@@H](Cc2ccc(O)cc2)C(=O)N(C)[C@@H](C)C(=O)N[C@@H](CC(N)=O)C(=O)N2CCC[C@H]2C(=O)N[C@@H](CNC(=O)Nc2ccc(C(=O)OCC)cc2)C(=O)N[C@@H](CC(C)C)C(=O)N2C[C@H](O)C[C@H]2C(=O)N[C@@H](Cc2c[nH]c3ccccc23)C(=O)N[C@@H](CCN)C(=O)N[C@@H](Cc2cn(CC(=O)O)c3ccccc23)C(=O)N1C [Example 1069] ({CH2CO}-Y[NMeA]NP[Dap]([CO-4Abz-OEt])L[Hyp]W[Dab][Trp(1-CH2COOH)][NMeNle][NMeNle]LCG-NH2; thioether N-14) | 0.4 nM |
| CCCC[C@H]1C(=O)N(C)[C@@H](CCCC)C(=O)N[C@@H](CC(C)C)C(=O)N[C@H](C(=O)NCC(N)=O)CSCC(=O)N[C@@H](Cc2ccc(O)cc2)C(=O)N(C)[C@@H](C)C(=O)N[C@@H](CC(N)=O)C(=O)N2CCC[C@H]2C(=O)N[C@@H](CNC(=S)Nc2ccc3oc(C)cc3c2)C(=O)N[C@@H](CC(C)C)C(=O)N2C[C@H](O)C[C@H]2C(=O)N[C@@H](Cc2c[nH]c3ccccc23)C(=O)N[C@@H](CCNC(=S)Nc2ccc3oc(C)cc3c2)C(=O)N[C@@H](Cc2cn(CC(=O)O)c3ccccc23)C(=O)N1C [Example 3072] ({CH2CO}-Y[NMeA]NP[Dap](X60)L[Hyp]W[Dab](X60)[Trp(1-CH2COOH)][NMeNle][NMeNle]LCG-NH2; thioether N-14) | 1.5 nM |
| CCCC[C@H]1C(=O)N(C)[C@@H](CCCC)C(=O)N[C@@H](CC(C)C)C(=O)N[C@H](C(=O)NCC(N)=O)CSCC(=O)N[C@@H](Cc2ccc(O)cc2)C(=O)N(C)[C@@H](C)C(=O)N[C@@H](CC(N)=O)C(=O)N2CCC[C@H]2C(=O)N[C@@H](CNC(=O)Nc2cc(OC)cc(OC)c2)C(=O)N[C@@H](CC(C)C)C(=O)N2C[C@H](O)C[C@H]2C(=O)N[C@@H](Cc2c[nH]c3ccccc23)C(=O)N[C@@H](CCN)C(=O)N[C@@H](Cc2cn(CC(=O)O)c3ccccc23)C(=O)N1C [Example 1064] ({CH2CO}-Y[NMeA]NP[Dap]([CO-X58])L[Hyp]W[Dab][Trp(1-CH2COOH)][NMeNle][NMeNle]LCG-NH2; thioether N-14) | 3 nM |
| CCCC[C@H]1C(=O)N(C)[C@@H](CCCC)C(=O)N[C@@H](CC(C)C)C(=O)N[C@H](C(=O)NCC(N)=O)CSCC(=O)N[C@@H](Cc2ccc(O)cc2)C(=O)N(C)[C@@H](C)C(=O)N[C@@H](CC(N)=O)C(=O)N2CCC[C@H]2C(=O)N[C@@H](CNC(=O)N(c2ccccc2)c2ccccc2)C(=O)N[C@@H](CC(C)C)C(=O)N2C[C@H](O)C[C@H]2C(=O)N[C@@H](Cc2c[nH]c3ccccc23)C(=O)N[C@@H](CCNC(=O)N(c2ccccc2)c2ccccc2)C(=O)N[C@@H](Cc2cn(CC(=O)OC)c3ccccc23)C(=O)N1C [Example 1004] ({CH2CO}-Y[NMeA]NP[Dap]([CO-X22])L[Hyp]W[Dab]([CO-X22])[Trp(1-CH2CO2Me)][NMeNle][NMeNle]LCG-NH2; thioether N-14) | 23 nM |

Next, values leading:

| IC50 | SMILES |
| --- | --- |
| 0.6 nM | CCCC[C@H]1C(=O)N(C)[C@@H](CCCC)C(=O)N[C@@H](CC(C)C)C(=O)N[C@H](C(=O)NCC(N)=O)CSCC(=O)N[C@@H](Cc2ccc(O)cc2)C(=O)N(C)[C@@H](C)C(=O)N[C@@H](CC(N)=O)C(=O)N2CCC[C@H]2C(=O)N[C@@H](CNC(=S)Nc2cccc3nsnc23)C(=O)N[C@@H](CC(C)C)C(=O)N2C[C@H](O)C[C@H]2C(=O)N[C@@H](Cc2c[nH]c3ccccc23)C(=O)N[C@@H](CCN)C(=O)N[C@@H](Cc2cn(CC(=O)O)c3ccccc23)C(=O)N1C [Example 3016] ({CH2CO}-Y[NMeA]NP[Dap](X82)L[Hyp]W[Dab][Trp(1-CH2COOH)][NMeNle][NMeNle]LCG-NH2; thioether N-14) |
| 24 nM | CCCC[C@H]1C(=O)N(C)[C@@H](CCCC)C(=O)N[C@@H](CC(C)C)C(=O)N[C@H](C(=O)NCC(N)=O)CSCC(=O)N[C@@H](Cc2ccc(O)cc2)C(=O)N(C)[C@@H](C)C(=O)N[C@@H](CC(N)=O)C(=O)N2CCC[C@H]2C(=O)N[C@@H](CNC(=O)Nc2cccc(Oc3ccccc3)c2)C(=O)N[C@@H](CC(C)C)C(=O)N2C[C@H](O)C[C@H]2C(=O)N[C@@H](Cc2c[nH]c3ccccc23)C(=O)N[C@@H](CCNC(=O)Nc2cccc(Oc3ccccc3)c2)C(=O)N[C@@H](Cc2cn(CC(=O)O)c3ccccc23)C(=O)N1C [Example 1020] ({CH2CO}-Y[NMeA]NP[Dap]([CO-X36])L[Hyp]W[Dab]([CO-X36])[Trp(1-CH2COOH)][NMeNle][NMeNle]LCG-NH2; thioether N-14) |
| 4.2 nM | CCCC[C@H]1C(=O)N(C)[C@@H](CCCC)C(=O)N[C@@H](CC(C)C)C(=O)N[C@H](C(=O)NCC(N)=O)CSCC(=O)N[C@@H](Cc2ccc(O)cc2)C(=O)N(C)[C@@H](C)C(=O)N[C@@H](CC(N)=O)C(=O)N2CCC[C@H]2C(=O)N[C@@H](CNC(=S)Nc2cc(OC)cc(OC)c2)C(=O)N[C@@H](CC(C)C)C(=O)N2C[C@H](O)C[C@H]2C(=O)N[C@@H](Cc2c[nH]c3ccccc23)C(=O)N[C@@H](CCNC(=S)Nc2cc(OC)cc(OC)c2)C(=O)N[C@@H](Cc2cn(CC(=O)O)c3ccccc23)C(=O)N1C [Example 1086] ({CH2CO}-Y[NMeA]NP[Dap](X55)L[Hyp]W[Dab](X55)[Trp(1-CH2COOH)][NMeNle][NMeNle]LCG-NH2; thioether N-14) |
| 0.3 nM | CCCC[C@H]1C(=O)N(C)[C@@H](CCCC)C(=O)N[C@@H](CC(C)C)C(=O)N[C@H](C(=O)NCC(N)=O)CSCC(=O)N[C@@H](Cc2ccc(O)cc2)C(=O)N(C)[C@@H](C)C(=O)N[C@@H](CC(N)=O)C(=O)N2CCC[C@H]2C(=O)N[C@@H](CNC(=O)Nc2c[nH]c3ccccc23)C(=O)N[C@@H](CC(C)C)C(=O)N2C[C@H](O)C[C@H]2C(=O)N[C@@H](Cc2c[nH]c3ccccc23)C(=O)N[C@@H](CCN)C(=O)N[C@@H](Cc2cn(CC(=O)O)c3ccccc23)C(=O)N1C [Example 3041] ({CH2CO}-Y[NMeA]NP[Dap]([CO-X52])L[Hyp]W[Dab][Trp(1-CH2COOH)][NMeNle][NMeNle]LCG-NH2; thioether N-14) |
| 2 nM | CCCC[C@H]1C(=O)N(C)[C@@H](CCCC)C(=O)N[C@@H](CC(C)C)C(=O)N[C@H](C(=O)NCC(N)=O)CSCC(=O)N[C@@H](Cc2ccc(O)cc2)C(=O)N(C)[C@@H](C)C(=O)N[C@@H](CC(N)=O)C(=O)N2CCC[C@H]2C(=O)N[C@@H](CNC(=S)Nc2c(Cl)c(Cl)cc(Cl)c2Cl)C(=O)N[C@@H](CC(C)C)C(=O)N2C[C@H](O)C[C@H]2C(=O)N[C@@H](Cc2c[nH]c3ccccc23)C(=O)N[C@@H](CCN)C(=O)N[C@@H](Cc2cn(CC(=O)O)c3ccccc23)C(=O)N1C [Example 1110] ({CH2CO}-Y[NMeA]NP[Dap](X67)L[Hyp]W[Dab][Trp(1-CH2COOH)][NMeNle][NMeNle]LCG-NH2; thioether N-14) |
| 4 nM | CCCC[C@H]1C(=O)N(C)[C@@H](CCCC)C(=O)N[C@@H](CC(C)C)C(=O)N[C@H](C(=O)NCC(N)=O)CSCC(=O)N[C@@H](Cc2ccc(O)cc2)C(=O)N(C)[C@@H](C)C(=O)N[C@@H](CC(N)=O)C(=O)N2CCC[C@H]2C(=O)N[C@@H](CNC(=S)Nc2ccc(N3CCOCC3)nc2)C(=O)N[C@@H](CC(C)C)C(=O)N2C[C@H](O)C[C@H]2C(=O)N[C@@H](Cc2c[nH]c3ccccc23)C(=O)N[C@@H](CCN)C(=O)N[C@@H](Cc2cn(CC(=O)O)c3ccccc23)C(=O)N1C [Example 1058] ({CH2CO}-Y[NMeA]NP[Dap](X94)L[Hyp]W[Dab][Trp(1-CH2COOH)][NMeNle][NMeNle]LCG-NH2; thioether N-14) |
